{"source": "patent US20070014834A1", "about": "“Apparatus and methods of improved delivery of orally-administered therapeutic substances” (priority 2005, published 2007)", "origin": "cited, not measured here", "key": {"capsaicin-induced cough": {"tested_on": "capsaicin-induced cough", "details": "for concentration of capsaicin required to produce a cough, compared with placebo: 10 healthy volunteers"}, "[1]": {"tested_on": "citric acid-induced cough", "details": "guinea-pigs in vivo"}}}
{"smiles": "COc1ccc2c3c1O[C@H]1[C@@H](O)C=C[C@H]4[C@@H](C2)N(C)CC[C@@]341", "note": "[codeine]", "values": [{"measurement": "concentration of capsaicin required to produce a cough, compared with placebo", "setting": "capsaicin-induced cough", "value": "only marginally higher"}]}
{"smiles": "Cn1cnc2c1c(=O)[nH]c(=O)n2C", "note": "[theobromine]", "values": [{"measurement": "inhibition of capsaicin-induced sensory nerve depolarization", "setting": "guinea-pig vagus nerve", "value": "directly inhibits"}, {"measurement": "concentration of capsaicin required to produce a cough, compared with placebo", "setting": "capsaicin-induced cough", "value": "around one third higher"}, {"measurement": "effectiveness in stopping persistent coughs compared with codeine", "setting": "capsaicin-induced cough; compared with codeine", "value": "nearly a third more effective"}, {"measurement": "suppression of capsaicin-induced cough", "setting": "capsaicin-induced cough; randomized, double-blind, placebo-controlled study in man", "value": "suppresses"}, {"measurement": "inhibition of capsaicin-induced sensory nerve depolarization", "setting": "human vagus nerve", "value": "directly inhibits"}, {"measurement": "inhibition of citric acid-induced cough", "setting": "[1]", "value": "effectively inhibits"}]}
